How the values were obtained:
[1] = target: Calcium/calmodulin-dependent protein kinase kinase 1 (Homo sapiens) (UniProt Q8N5S9); assay: Inhibition of tracer 236 binding to recombinant human GST-tagged full length CAMKK1 expressed in Escherichia coli expression system at 10 uM incubated for 60 mins by Lanthascreen assay relative to control
[2] = target: Protein-tyrosine kinase 6 (Homo sapiens) (UniProt Q13882); assay: Inhibition of recombinant human His-tagged full length BRK expressed in baculovirus expression system using Tyr 01 as substrate at 10 uM incubated for 60 mins by Z'-Lyte assay relative to control
[3] = target: Mitogen-activated protein kinase 10 (Homo sapiens) (UniProt P53779); assay: Inhibition of recombinant human N-terminal GST-tagged full length JNK3 expressed in baculovirus expression system using Ser/Thr 04 as substrate at 10 uM incubated for 60 mins by Z'-lyte assay relative to control
[4] = target: RAC-alpha serine/threonine-protein kinase (Homo sapiens) (UniProt P31749); assay: Inhibition of recombinant human His-tagged full length AKT1 expressed in baculovirus expression system using Ser/Thr 06 as substrate at 10 uM incubated for 60 mins by Z'-Lyte assay relative to control
[5] = target: Serine/threonine-protein kinase 17A (Homo sapiens) (UniProt Q9UEE5); assay: Inhibition of tracer 236 binding to recombinant human GST-tagged full length DRAK1 expressed in baculovirus expression system at 10 uM incubated for 60 mins by Lanthascreen assay relative to control
[6] = system: Epidermal growth factor receptor (Homo sapiens), P00533 [L858R,T790M]; assay: Inhibition of recombinant human GST-tagged EGFR T790M/L858R double mutant (668 to 1210 residues) expressed in baculovirus expression system using Tyr 4 as substrate at 10 uM incubated for 60 mins by Z'-Lyte assay relative to control
[7] = target: Ephrin type-A receptor 8 (Homo sapiens) (UniProt P29322); assay: Inhibition of recombinant human GST-tagged EPHA8 (565 to 1005 residues) expressed in baculovirus expression system using Tyr 02 as substrate at 10 uM incubated for 60 mins by Z'-Lyte assay relative to control
[8] = target: Ephrin type-B receptor 1 (Homo sapiens) (UniProt P54762); assay: Inhibition of recombinant human GST-tagged EPHB1 (613 to 881 residues) expressed in baculovirus expression system using Tyr 02 as substrate at 10 uM incubated for 60 mins by Z'-Lyte assay relative to control
[9] = target: Vascular endothelial growth factor receptor 1 (Homo sapiens) (UniProt P17948); assay: Inhibition of recombinant human GST-tagged FLT1 (781 to 1338 residues) expressed in baculovirus expression system using Tyr 04 as substrate at 10 uM incubated for 60 mins by Z'-Lyte assay relative to control
[10] = target: G protein-coupled receptor kinase 3 (Homo sapiens) (UniProt P35626); assay: Inhibition of recombinant human GST-tagged full length GRK3 expressed in baculovirus expression system using Ser/Thr 16 as substrate at 10 uM incubated for 60 mins by Z'-Lyte assay relative to control
[11] = target: Tyrosine-protein kinase JAK2 (Homo sapiens) (UniProt O60674); assay: Inhibition of recombinant human GST-tagged JAK2 (809 to 1153 residues) expressed in baculovirus expression system using Tyr 06 as substrate at 10 uM incubated for 60 mins by Z'-lyte assay relative to control
[12] = target: Tyrosine-protein kinase Lck (Homo sapiens) (UniProt P06239); assay: Inhibition of recombinant human His-tagged full length LCK expressed in baculovirus expression system using Tyr 02 as substrate at 10 uM incubated for 60 mins by Z'-lyte assay relative to control
[13] = target: Mitogen-activated protein kinase kinase kinase kinase 4 (Homo sapiens) (UniProt O95819); assay: Inhibition of recombinant human GST-tagged full length MAP4K4 expressed in baculovirus expression system using Ser/Thr 07 as substrate at 10 uM incubated for 60 mins by Z'-lyte assay relative to control
[14] = target: SRSF protein kinase 3 (Homo sapiens) (UniProt Q9UPE1); assay: Inhibition of recombinant human GST-tagged full length MSSK1 expressed in baculovirus expression system using Ser/Thr 13 as substrate at 10 uM incubated for 60 mins by Z'-lyte assay relative to control
[15] = target: Serine/threonine-protein kinase Nek6 (Homo sapiens) (UniProt Q9HC98); assay: Inhibition of recombinant human GST-tagged full length NEK6 expressed in insect expression system using Ser/Thr 22 as substrate at 10 uM incubated for 60 mins by Z'-lyte assay relative to control
[16] = target: Serine/threonine-protein kinase PAK 4 (Homo sapiens) (UniProt O96013); assay: Inhibition of recombinant human His-tagged PAK4 (295 to 591 residues) expressed in baculovirus expression system using Ser/Thr 20 as substrate at 10 uM incubated for 60 mins by Z'-lyte assay relative to control
[17] = target: Protein kinase C alpha type (Homo sapiens) (UniProt P17252); assay: Inhibition of recombinant human His-tagged full length PKCalpha expressed in Escherichia coli expression system using Ser/Thr 07 as substrate at 10 uM incubated for 60 mins by Z'-lyte assay relative to control
[18] = target: Phosphorylase b kinase gamma catalytic chain, skeletal muscle/heart isoform (Homo sapiens) (UniProt Q16816); assay: Inhibition of recombinant human GST-tagged full length PHKG1 expressed in baculovirus expression system using Ser/Thr 07 as substrate at 10 uM incubated for 60 mins by Z'-lyte assay relative to control
[19] = target: Tyrosine-protein kinase receptor TYRO3 (Homo sapiens) (UniProt Q06418); assay: Inhibition of recombinant human GST-tagged full length RSE (451 to 890 residues) expressed in baculovirus expression system using Tyr 02 as substrate at 10 uM incubated for 60 mins by Z'-Lyte assay relative to control
[20] = target: Tyrosine-protein kinase Tec (Homo sapiens) (UniProt P42680); assay: Inhibition of tracer 178 binding to recombinant human His-tagged full length TEC expressed in baculovirus expression system at 10 uM incubated for 60 mins by Lanthascreen assay relative to control
[21] = target: Testis-specific serine/threonine-protein kinase 1 (Homo sapiens) (UniProt Q9BXA7); assay: Inhibition of recombinant human His-tagged full length TSSK1 expressed in baculovirus expression system using Ser/Thr 04 as substrate at 10 uM incubated for 60 mins by Z'-Lyte assay relative to control
[22] = target: Serine/threonine-protein kinase WNK2 (Homo sapiens) (UniProt Q9Y3S1); assay: Inhibition of tracer 178 binding to recombinant human GST-tagged WNK2 (166 to 489 residues) expressed in baculovirus expression system at 10 uM incubated for 60 mins by Lanthascreen assay relative to control
[23] = target: Tyrosine-protein kinase Yes (Homo sapiens) (UniProt P07947); assay: Inhibition of recombinant human GST-tagged full length YES expressed in baculovirus expression system using Tyr 02 as substrate at 10 uM incubated for 60 mins by Z'-Lyte assay relative to control
[24] = target: Mitogen-activated protein kinase 12 (Homo sapiens) (UniProt P53778); assay: Inhibition of recombinant human His-tagged full length p38 gamma expressed in baculovirus expression system using Ser/Thr 03 as substrate at 10 uM incubated for 60 mins by Z'-Lyte assay relative to control

Sequence of Tyrosine-protein kinase Yes (Homo sapiens) (P07947 2-543 limits assumed): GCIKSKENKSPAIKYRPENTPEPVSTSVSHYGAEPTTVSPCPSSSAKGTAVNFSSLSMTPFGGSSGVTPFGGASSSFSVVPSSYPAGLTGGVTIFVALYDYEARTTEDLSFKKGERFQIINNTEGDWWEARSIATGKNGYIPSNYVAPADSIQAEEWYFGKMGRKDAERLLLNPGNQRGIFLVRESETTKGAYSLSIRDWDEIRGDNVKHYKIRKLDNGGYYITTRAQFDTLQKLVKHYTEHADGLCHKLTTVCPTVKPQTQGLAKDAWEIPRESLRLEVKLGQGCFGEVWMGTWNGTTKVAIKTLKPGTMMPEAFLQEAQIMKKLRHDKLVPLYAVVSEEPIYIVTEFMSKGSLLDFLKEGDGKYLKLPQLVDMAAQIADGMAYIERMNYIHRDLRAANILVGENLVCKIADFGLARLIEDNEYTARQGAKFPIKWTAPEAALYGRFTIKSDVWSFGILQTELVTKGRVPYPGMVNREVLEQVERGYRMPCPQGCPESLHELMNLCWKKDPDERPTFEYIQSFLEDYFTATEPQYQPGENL
Sequence of RAC-alpha serine/threonine-protein kinase (Homo sapiens) (P31749 whole entry): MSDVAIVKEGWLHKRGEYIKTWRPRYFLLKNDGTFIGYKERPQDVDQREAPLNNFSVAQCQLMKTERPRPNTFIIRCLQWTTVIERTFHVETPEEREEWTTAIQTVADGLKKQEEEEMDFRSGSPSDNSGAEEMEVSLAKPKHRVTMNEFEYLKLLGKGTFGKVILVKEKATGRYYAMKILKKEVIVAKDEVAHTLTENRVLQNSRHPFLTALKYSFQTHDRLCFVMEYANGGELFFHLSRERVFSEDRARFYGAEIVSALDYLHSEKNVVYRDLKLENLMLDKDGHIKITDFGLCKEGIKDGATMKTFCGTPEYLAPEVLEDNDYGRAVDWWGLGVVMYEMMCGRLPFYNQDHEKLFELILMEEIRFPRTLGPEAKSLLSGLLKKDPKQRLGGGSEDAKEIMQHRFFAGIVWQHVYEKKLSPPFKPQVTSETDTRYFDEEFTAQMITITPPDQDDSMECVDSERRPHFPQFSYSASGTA
Sequence of Tyrosine-protein kinase Tec (Homo sapiens) (P42680 whole entry): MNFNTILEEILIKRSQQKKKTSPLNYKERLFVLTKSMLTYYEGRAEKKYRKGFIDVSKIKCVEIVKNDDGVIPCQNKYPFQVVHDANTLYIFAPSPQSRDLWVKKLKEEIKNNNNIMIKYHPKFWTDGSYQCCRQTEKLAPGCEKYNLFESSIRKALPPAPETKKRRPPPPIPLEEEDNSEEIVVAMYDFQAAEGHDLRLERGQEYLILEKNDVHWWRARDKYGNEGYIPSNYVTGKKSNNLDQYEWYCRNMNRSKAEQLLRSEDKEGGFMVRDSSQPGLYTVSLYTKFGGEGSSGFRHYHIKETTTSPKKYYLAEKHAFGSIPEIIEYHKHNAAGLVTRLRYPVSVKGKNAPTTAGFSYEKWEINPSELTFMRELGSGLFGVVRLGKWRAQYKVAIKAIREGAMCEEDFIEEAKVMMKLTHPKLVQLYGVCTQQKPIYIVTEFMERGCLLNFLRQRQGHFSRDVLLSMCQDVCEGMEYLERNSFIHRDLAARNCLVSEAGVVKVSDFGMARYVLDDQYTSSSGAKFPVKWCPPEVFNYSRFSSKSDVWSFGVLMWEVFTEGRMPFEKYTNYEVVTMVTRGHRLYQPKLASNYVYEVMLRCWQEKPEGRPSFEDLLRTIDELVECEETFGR
Sequence of Testis-specific serine/threonine-protein kinase 1 (Homo sapiens) (Q9BXA7 whole entry, the tested form may be a part): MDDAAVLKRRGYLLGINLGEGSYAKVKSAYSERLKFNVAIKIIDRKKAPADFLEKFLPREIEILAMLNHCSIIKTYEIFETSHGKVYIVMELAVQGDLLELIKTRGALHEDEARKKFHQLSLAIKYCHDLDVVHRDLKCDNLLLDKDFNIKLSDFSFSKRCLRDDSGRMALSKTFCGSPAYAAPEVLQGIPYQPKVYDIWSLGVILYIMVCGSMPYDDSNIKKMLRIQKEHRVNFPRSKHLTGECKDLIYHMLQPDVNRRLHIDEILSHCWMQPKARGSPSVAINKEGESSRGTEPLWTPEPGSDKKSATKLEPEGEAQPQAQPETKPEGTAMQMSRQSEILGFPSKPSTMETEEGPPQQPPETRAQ
Sequence of Vascular endothelial growth factor receptor 1 (Homo sapiens) (P17948 whole entry, the tested form may be a part): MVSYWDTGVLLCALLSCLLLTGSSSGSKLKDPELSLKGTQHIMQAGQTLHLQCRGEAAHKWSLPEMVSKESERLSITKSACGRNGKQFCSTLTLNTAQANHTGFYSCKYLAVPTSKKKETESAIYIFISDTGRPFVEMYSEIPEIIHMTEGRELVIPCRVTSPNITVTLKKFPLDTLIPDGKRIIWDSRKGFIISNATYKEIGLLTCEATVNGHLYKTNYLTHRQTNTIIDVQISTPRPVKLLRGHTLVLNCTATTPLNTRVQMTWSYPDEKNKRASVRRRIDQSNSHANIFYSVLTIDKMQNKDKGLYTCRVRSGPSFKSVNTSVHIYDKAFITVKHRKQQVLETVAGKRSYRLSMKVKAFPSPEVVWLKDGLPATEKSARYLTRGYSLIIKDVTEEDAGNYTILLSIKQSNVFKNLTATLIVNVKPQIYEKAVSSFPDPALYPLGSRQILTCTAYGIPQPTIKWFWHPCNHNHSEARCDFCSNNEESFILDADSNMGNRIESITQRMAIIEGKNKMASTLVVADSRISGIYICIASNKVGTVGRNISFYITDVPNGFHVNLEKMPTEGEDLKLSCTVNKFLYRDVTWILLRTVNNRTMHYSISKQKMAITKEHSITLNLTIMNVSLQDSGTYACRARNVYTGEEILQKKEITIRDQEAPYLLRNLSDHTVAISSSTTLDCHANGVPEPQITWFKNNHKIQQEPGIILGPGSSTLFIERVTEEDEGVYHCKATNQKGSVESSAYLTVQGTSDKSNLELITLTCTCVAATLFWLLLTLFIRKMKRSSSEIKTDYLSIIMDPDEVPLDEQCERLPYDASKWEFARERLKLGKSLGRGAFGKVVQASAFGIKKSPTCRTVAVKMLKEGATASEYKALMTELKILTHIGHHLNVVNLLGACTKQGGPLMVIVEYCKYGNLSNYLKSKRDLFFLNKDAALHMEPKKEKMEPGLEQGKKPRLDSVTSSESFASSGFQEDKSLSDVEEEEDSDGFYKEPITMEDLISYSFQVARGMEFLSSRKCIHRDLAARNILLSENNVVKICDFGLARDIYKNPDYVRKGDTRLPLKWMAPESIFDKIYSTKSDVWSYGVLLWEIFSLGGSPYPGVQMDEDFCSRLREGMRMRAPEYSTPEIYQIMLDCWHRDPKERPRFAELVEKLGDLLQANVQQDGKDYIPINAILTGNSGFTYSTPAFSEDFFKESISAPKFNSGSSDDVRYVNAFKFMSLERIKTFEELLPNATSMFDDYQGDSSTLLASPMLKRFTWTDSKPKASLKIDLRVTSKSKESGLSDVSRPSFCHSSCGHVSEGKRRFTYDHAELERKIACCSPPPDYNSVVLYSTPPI
Sequence of Tyrosine-protein kinase JAK2 (Homo sapiens) (O60674 whole entry, the tested form may be a part): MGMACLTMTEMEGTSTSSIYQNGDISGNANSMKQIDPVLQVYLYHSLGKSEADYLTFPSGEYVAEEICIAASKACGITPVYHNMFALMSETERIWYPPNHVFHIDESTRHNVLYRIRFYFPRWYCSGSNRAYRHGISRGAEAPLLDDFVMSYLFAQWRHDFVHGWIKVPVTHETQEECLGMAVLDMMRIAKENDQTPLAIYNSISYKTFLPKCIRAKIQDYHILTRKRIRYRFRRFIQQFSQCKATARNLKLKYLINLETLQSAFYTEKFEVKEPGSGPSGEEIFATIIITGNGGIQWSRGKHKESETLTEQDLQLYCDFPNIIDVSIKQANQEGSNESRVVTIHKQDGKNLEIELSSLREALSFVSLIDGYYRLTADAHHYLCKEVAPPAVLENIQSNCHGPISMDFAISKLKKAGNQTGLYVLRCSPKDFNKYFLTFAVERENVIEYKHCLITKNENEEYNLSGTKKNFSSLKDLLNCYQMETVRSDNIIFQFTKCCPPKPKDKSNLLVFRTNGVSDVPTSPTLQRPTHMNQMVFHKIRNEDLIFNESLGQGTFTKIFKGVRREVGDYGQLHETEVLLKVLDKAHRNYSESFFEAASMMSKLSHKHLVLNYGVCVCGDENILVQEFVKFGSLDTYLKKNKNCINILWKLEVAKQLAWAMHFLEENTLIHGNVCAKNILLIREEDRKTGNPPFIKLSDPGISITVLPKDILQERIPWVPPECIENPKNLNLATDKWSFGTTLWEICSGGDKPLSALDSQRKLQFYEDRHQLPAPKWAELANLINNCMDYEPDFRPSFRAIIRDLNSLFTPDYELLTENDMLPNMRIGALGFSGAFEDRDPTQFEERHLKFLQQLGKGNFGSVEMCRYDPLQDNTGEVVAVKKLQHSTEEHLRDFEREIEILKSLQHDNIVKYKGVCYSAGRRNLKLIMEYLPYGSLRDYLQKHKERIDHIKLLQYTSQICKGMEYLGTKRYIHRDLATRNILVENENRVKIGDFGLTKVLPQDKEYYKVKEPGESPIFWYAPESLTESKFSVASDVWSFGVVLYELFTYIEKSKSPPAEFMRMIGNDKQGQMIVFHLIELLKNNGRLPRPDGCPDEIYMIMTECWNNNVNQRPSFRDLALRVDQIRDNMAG
Sequence of Serine/threonine-protein kinase Nek6 (Homo sapiens) (Q9HC98 whole entry, the tested form may be a part): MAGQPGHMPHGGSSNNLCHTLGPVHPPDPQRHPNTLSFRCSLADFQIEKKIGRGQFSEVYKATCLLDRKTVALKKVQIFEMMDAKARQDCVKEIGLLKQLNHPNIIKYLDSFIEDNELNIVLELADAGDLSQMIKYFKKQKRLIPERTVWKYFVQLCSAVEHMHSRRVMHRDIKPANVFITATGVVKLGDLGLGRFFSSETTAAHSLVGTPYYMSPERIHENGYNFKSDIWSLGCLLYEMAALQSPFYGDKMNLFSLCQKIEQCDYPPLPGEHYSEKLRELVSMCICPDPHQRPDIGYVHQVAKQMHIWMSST

## CN1C(=O)[C@@H](NC(=O)c2n[nH]c3ncc(C(F)(F)C(F)(F)F)cc23)COc2ccccc21
[1]
  inhibition: -5%
[2]
  inhibition: 0.5%
[3]
  inhibition: 7%
[4]
  inhibition: -0.5%
[5]
  inhibition: 15.5%
[6]
  inhibition: 7%
[7]
  inhibition: 0%
[8]
  inhibition: 2%
[9]
  inhibition: 3.5%
[10]
  inhibition: 2.5%
[11]
  inhibition: 0%
[12]
  inhibition: -0.5%
[13]
  inhibition: 15.5%
[14]
  inhibition: 6.5%
[15]
  inhibition: 4%
[16]
  inhibition: 6%
[17]
  inhibition: -9.5%
[18]
  inhibition: 9%
[19]
  inhibition: 1.5%
[20]
  inhibition: -4.5%
[21]
  inhibition: 0%
[22]
  inhibition: 5%
[23]
  inhibition: 2.5%
[24]
  inhibition: -1%

Source: ChEMBL document CHEMBL4665648, “Potent and selective inhibitors of receptor-interacting protein kinase 1 that lack an aromatic back pocket group” (Bioorg Med Chem Lett, 2019)
